Reference: ChEMBL document CHEMBL4831516, “Development of Membrane-Active Honokiol/Magnolol Amphiphiles as Potent Antibacterial Agents against Methicillin-Resistant Staphylococcus aureus (MRSA)” (J Med Chem, 2021)
In brackets after ≈: the same amount, converted by molar mass. Each block holds one molecule with its values, some of them ahead of it.

Assays:
Streptococcus mutans = test: Antibacterial activity against Streptococcus mutans; assay type: functional
Bacillus subtilis = test: Antibacterial activity against Bacillus subtilis assessed as inhibition of visible growth incubated for 16 to 18 hrs by CLSI method; assay type: functional; details: time 16-18 hrs, read-out: MIC100
Staphylococcus aureus [1] = test: Antibacterial activity against methicillin-resistant Staphylococcus aureus clinical isolate M-18 assessed as inhibition of visible growth incubated for 16 to 18 hrs by CLSI method; assay type: functional; details: time 16-18 hrs, read-out: MIC100
Staphylococcus aureus [2] = test: Antibacterial activity against methicillin-resistant Staphylococcus aureus clinical isolate M-17 assessed as inhibition of visible growth incubated for 16 to 18 hrs by CLSI method; assay type: functional; details: time 16-18 hrs, read-out: MIC100
Staphylococcus aureus [3] = test: Antibacterial activity against methicillin-resistant Staphylococcus aureus clinical isolate M-15 assessed as inhibition of visible growth incubated for 16 to 18 hrs by CLSI method; assay type: functional; details: time 16-18 hrs, read-out: MIC100
Staphylococcus aureus [4] = test: Antibacterial activity against methicillin-resistant Staphylococcus aureus clinical isolate M-16 assessed as inhibition of visible growth incubated for 16 to 18 hrs by CLSI method; assay type: functional; details: time 16-18 hrs, read-out: MIC100
[5] = tested on: Stenotrophomonas maltophilia; test: Antibacterial activity against Stenotrophomonas maltophilia assessed as inhibition of visible growth incubated for 16 to 18 hrs by CLSI method; assay type: functional; details: time 16-18 hrs, read-out: MIC100
Staphylococcus aureus [6] = test: Antibacterial activity against methicillin-resistant Staphylococcus aureus clinical isolate M-11 assessed as inhibition of visible growth incubated for 16 to 18 hrs by CLSI method; assay type: functional; details: time 16-18 hrs, read-out: MIC100
Staphylococcus aureus [7] = test: Antibacterial activity against Staphylococcus aureus ATCC29213 assessed as inhibition of visible growth incubated for 16 to 18 hrs by CLSI method; assay type: functional; details: time 16-18 hrs, read-out: MIC100
Salmonella enterica [8] = test: Antibacterial activity against Salmonella enterica 349812 assessed as inhibition of visible growth incubated for 16 to 18 hrs by CLSI method; assay type: functional; details: time 16-18 hrs, read-out: MIC100
Staphylococcus aureus [9] = test: Antibacterial activity against methicillin-resistant Staphylococcus aureus clinical isolate M-14 assessed as inhibition of visible growth incubated for 16 to 18 hrs by CLSI method; assay type: functional; details: time 16-18 hrs, read-out: MIC100
Staphylococcus aureus [10] = test: Antibacterial activity against methicillin-resistant Staphylococcus aureus clinical isolate M-19 assessed as inhibition of visible growth incubated for 16 to 18 hrs by CLSI method; assay type: functional; details: time 16-18 hrs, read-out: MIC100
Micrococcus luteus = test: Antibacterial activity against Micrococcus luteus assessed as inhibition of visible growth incubated for 16 to 18 hrs by CLSI method; assay type: functional; details: time 16-18 hrs, read-out: MIC100
Enterococcus faecalis = test: Antibacterial activity against Enterococcus faecalis ATCC29212 assessed as inhibition of visible growth incubated for 16 to 18 hrs by CLSI method; assay type: functional; details: time 16-18 hrs, read-out: MIC100
Staphylococcus aureus [11] = test: Antibacterial activity against methicillin-resistant Staphylococcus aureus clinical isolate M-13 assessed as inhibition of visible growth incubated for 16 to 18 hrs by CLSI method; assay type: functional; details: time 16-18 hrs, read-out: MIC100
Staphylococcus aureus [12] = test: Antibacterial activity against methicillin-resistant Staphylococcus aureus clinical isolate M-12 assessed as inhibition of visible growth incubated for 16 to 18 hrs by CLSI method; assay type: functional; details: time 16-18 hrs, read-out: MIC100
[13] = Hemolytic activity in sheep RBC assessed as hemolysis incubated for 1 hr; assay type: ADME, cell-based, Ovis aries, Erythrocyte; details: sheep red blood cells (erythrocytes)
[14] = Selectivity index, HC50 for hemolytic activity in sheep RBC to MIC for antibacterial activity against Staphylococcus aureus ATCC29213; assay type: toxicity; details: sheep red blood cells (erythrocytes), read-out: Selectivity Index
Salmonella enterica [15] = test: Antibacterial activity against Salmonella enterica 8389 assessed as inhibition of visible growth incubated for 16 to 18 hrs by CLSI method; assay type: functional; details: time 16-18 hrs, read-out: MIC100
Staphylococcus aureus [16] = test: Antibacterial activity against methicillin-resistant Staphylococcus aureus clinical isolate M-20 assessed as inhibition of visible growth incubated for 16 to 18 hrs by CLSI method; assay type: functional; details: time 16-18 hrs, read-out: MIC100
Escherichia coli = test: Antibacterial activity against Escherichia coli ATCC25922 assessed as inhibition of visible growth incubated for 16 to 18 hrs by CLSI method; assay type: functional; details: time 16-18 hrs, read-out: MIC100

- MIC (Streptococcus mutans): 8 µg/mL (≈ 24.5 µM)
SMILES: CC(C)(C)c1ccc(CCc2ccc(C(C)(C)C)c(O)c2)cc1O

SMILES: C=CCc1ccc(O)c(-c2cc(CC=C)ccc2OCCC[N+](C)(C)CC(=O)NCCCC)c1.[Br-]
- MIC (Bacillus subtilis): 1 µg/mL
- MIC (Staphylococcus aureus [1]): 4 µg/mL
- MIC (Staphylococcus aureus [2]): 4 µg/mL
- MIC (Staphylococcus aureus [3]): 4 µg/mL
- MIC (Staphylococcus aureus [4]): 4 µg/mL
- MIC [5]: 32 µg/mL
- MIC (Staphylococcus aureus [6]): 8 µg/mL
- MIC (Staphylococcus aureus [7]): 2 µg/mL
- MIC (Salmonella enterica [8]): 32 µg/mL
- MIC (Staphylococcus aureus [9]): 4 µg/mL
- MIC (Staphylococcus aureus [10]): 4 µg/mL
- MIC (Micrococcus luteus): 1 µg/mL
- MIC (Enterococcus faecalis): 4 µg/mL
- MIC (Staphylococcus aureus [11]): 4 µg/mL
- MIC (Staphylococcus aureus [12]): 4 µg/mL
- HC50 at 1 h [13]: 596 µg/mL
- selectivity ratio [14]: 298
- MIC (Salmonella enterica [15]): 32 µg/mL
- MIC (Staphylococcus aureus [16]): 4 µg/mL
- MIC (Escherichia coli): 8 µg/mL

SMILES: C=CCc1ccc(OCCC[N+](C)(C)CC(=O)N(CCCC)CCCC)c(-c2ccc(OCCC[N+](C)(C)CC(=O)N(CCCC)CCCC)c(CC=C)c2)c1.[Br-].[Br-]
- MIC (Bacillus subtilis): 2 µg/mL
- MIC (Staphylococcus aureus [1]): 8 µg/mL
- MIC (Staphylococcus aureus [2]): 8 µg/mL
- MIC (Staphylococcus aureus [3]): 8 µg/mL
- MIC (Staphylococcus aureus [4]): 8 µg/mL
- MIC [5]: 4 µg/mL
- MIC (Staphylococcus aureus [6]): 8 µg/mL
- MIC (Staphylococcus aureus [7]): 4 µg/mL
- MIC (Salmonella enterica [8]): 16 µg/mL
- MIC (Staphylococcus aureus [9]): 8 µg/mL
- MIC (Staphylococcus aureus [10]): 8 µg/mL
- MIC (Micrococcus luteus): 1 µg/mL
- MIC (Enterococcus faecalis): 2 µg/mL
- MIC (Staphylococcus aureus [11]): 8 µg/mL
- MIC (Staphylococcus aureus [12]): 8 µg/mL
- HC50 at 1 h [13]: 1080 µg/mL
- selectivity ratio [14]: 270
- MIC (Salmonella enterica [15]): 8 µg/mL
- MIC (Staphylococcus aureus [16]): 8 µg/mL
- MIC (Escherichia coli): 4 µg/mL

SMILES: C=CCc1ccc(O)c(-c2cc(CC=C)ccc2OCC[N+](C)(C)CC(=O)NCCCCCC)c1.[Br-]
- MIC (Bacillus subtilis): 4 µg/mL
- MIC (Staphylococcus aureus [1]): 8 µg/mL
- MIC (Staphylococcus aureus [2]): 8 µg/mL
- MIC (Staphylococcus aureus [3]): 4 µg/mL
- MIC (Staphylococcus aureus [4]): 4 µg/mL
- MIC [5]: 64 µg/mL
- MIC (Staphylococcus aureus [6]): 8 µg/mL
- MIC (Staphylococcus aureus [7]): 4 µg/mL
- MIC (Salmonella enterica [8]): 64 µg/mL
- MIC (Staphylococcus aureus [9]): 4 µg/mL
- MIC (Staphylococcus aureus [10]): 8 µg/mL
- MIC (Micrococcus luteus): 4 µg/mL
- MIC (Enterococcus faecalis): 16 µg/mL
- MIC (Staphylococcus aureus [11]): 8 µg/mL
- MIC (Staphylococcus aureus [12]): 8 µg/mL
- HC50 at 1 h [13]: 723 µg/mL
- selectivity ratio [14]: 181
- MIC (Salmonella enterica [15]): 64 µg/mL
- MIC (Staphylococcus aureus [16]): 4 µg/mL
- MIC (Escherichia coli): 32 µg/mL

SMILES: C=CCc1ccc(OCCC[N+](C)(C)CC(=O)NCCCCCC)c(-c2ccc(OCCC[N+](C)(C)CC(=O)NCCCCCC)c(CC=C)c2)c1.[Br-].[Br-]
- MIC (Bacillus subtilis): 2 µg/mL
- MIC (Staphylococcus aureus [1]): 4 µg/mL
- MIC (Staphylococcus aureus [2]): 4 µg/mL
- MIC (Staphylococcus aureus [3]): 4 µg/mL
- MIC (Staphylococcus aureus [4]): 4 µg/mL
- MIC [5]: 8 µg/mL
- MIC (Staphylococcus aureus [6]): 4 µg/mL
- MIC (Staphylococcus aureus [7]): 4 µg/mL
- MIC (Salmonella enterica [8]): 4 µg/mL
- MIC (Staphylococcus aureus [9]): 4 µg/mL
- MIC (Staphylococcus aureus [10]): 4 µg/mL
- MIC (Micrococcus luteus): 2 µg/mL
- MIC (Enterococcus faecalis): 4 µg/mL
- MIC (Staphylococcus aureus [11]): 4 µg/mL
- MIC (Staphylococcus aureus [12]): 4 µg/mL
- HC50 at 1 h [13]: 1080 µg/mL
- selectivity ratio [14]: 269
- MIC (Salmonella enterica [15]): 2 µg/mL
- MIC (Staphylococcus aureus [16]): 4 µg/mL
- MIC (Escherichia coli): 8 µg/mL

SMILES: C=CCc1ccc(OCCCC[N+](C)(C)CC(=O)NCCCC)c(-c2ccc(OCCCC[N+](C)(C)CC(=O)NCCCC)c(CC=C)c2)c1.[Br-].[Br-]
- MIC (Bacillus subtilis): 2 µg/mL
- MIC (Staphylococcus aureus [1]): 4 µg/mL
- MIC (Staphylococcus aureus [2]): 4 µg/mL
- MIC (Staphylococcus aureus [3]): 4 µg/mL
- MIC (Staphylococcus aureus [4]): 4 µg/mL
- MIC [5]: 8 µg/mL
- MIC (Staphylococcus aureus [6]): 2 µg/mL
- MIC (Staphylococcus aureus [7]): 2 µg/mL
- MIC (Salmonella enterica [8]): 8 µg/mL
- MIC (Staphylococcus aureus [9]): 2 µg/mL
- MIC (Staphylococcus aureus [10]): 4 µg/mL
- MIC (Micrococcus luteus): 4 µg/mL
- MIC (Enterococcus faecalis): 1 µg/mL
- MIC (Staphylococcus aureus [11]): 2 µg/mL
- MIC (Staphylococcus aureus [12]): 2 µg/mL
- HC50 at 1 h [13]: 531 µg/mL
- selectivity ratio [14]: 266
- MIC (Salmonella enterica [15]): 16 µg/mL
- MIC (Staphylococcus aureus [16]): 2 µg/mL
- MIC (Escherichia coli): 8 µg/mL
